According to patent US20250122193A1, “NOVEL PYRIDOCARBAZOLIUM COMPOUNDS AND MEDICAL USES THEREOF” (MyCural Therapeutics, priority 2021, published 2025):

Experiments:
MYC:MAX interaction = MYC:MAX interaction (Homo sapiens, UniProt P01106); assay: co-immunoprecipitation of endogenous MYC and MAX; type: cell-based; conditions: 5 μM, MCF7 cells
Description: FIG. 1: MYCMI-7 (Compound Example 1) inhibits the MYC:MAX interaction in cells, bind MYC in vitro, and blocks MYC function. A) Molecular structure of MYCMI-7. B-E) split Gaussia luciferase (GLuc) assay. MYC or MYCN and MAX Gluc constructs were co-transfected into HeLa cells together with a firefly luciferase vector. 24 hours post transfection cells were treated with compounds, and after another 17-24 hours cells were harvested and both GLuc and firefly luciferase activities were measured. The mean of three different experiments is shown. Treatment with: B) 5 μM of MYCMI-7, 64 μM 10058-F4 or 5 μM JQ1, respectively, C) 6.5 μM MYCMI-7 on cells expressing MYC:MAX GLuc vs. GCN4:GCN4 GLuc, D) 5 μM MYCMI-7 and 5 μM ellipticine. E) 5 μM MYCMI-7 for various time points. F) in situ proximity ligation assay (isPLA). […] G) Quantification of isPLA dots. […] J) MYC target gene ODC1 expression after treatment with 5 μM MYCMI-7, quantified by qPCR. […] L) Recombinant MYC bHLHZip protein domain immobilized onto a CM5 chip was subjected to various concentrations of MYCMI-7 and the complex of MYCbHLHZip-MYCMI-7 was measured as response units by SPR. […]
For western blot equal amounts of proteins ([…]) were separated on a 4-12% SDS-PAGE gel. Proteins were transferred to Immobilion-P membrane (Millipore) and detected by immunostaining and chemoluminescence (Immobilion western HRP substrate; Millipore). […]

A375 melanoma cells = assay: Apo-Tox Glo Triplex assay, A375; type: cell-based; conditions: 3 days of treatment
Description: (§1) FIG. 4: MYCMI-7 induces apoptosis in malignant cells and growth arrest in normal cells. A) Cell cycle distribution analysis by flow cytometry of MYC-regulated P493-6 cells and normal rat embryo fibroblasts (REFs). Left panel, P493-6 synchronized in G0 by 24 hours treatment of […] doxycycline. Doxycycline was removed and the cells were harvested 48 hours after the addition of fresh medium containing DMSO or 5 μM MYCMI-7. Right panel, flow cytometry analysis of normal REFs treated with DMSO or 5 μM MYCMI-7. B) Apoptosis assay using the Cell Death Detection ELISA^plus kit. Left panel, immortalized Rat1 fibroblasts with different MYC status after 24 hours of 5 μM MYCMI-7 treatment, middle panel and right panels, normal REFs and normal peripheral blood lymphocytes, respectively, after 24 and 48 hours of 5 μM MYCMI-7 treatment. C) Measurement of viability and apoptosis by Apo-Tox Glo Triplex assay in A375 melanoma cells after 3 days of treatment with MYCMI-7 with the indicated concentrations. […] E) NHDFs treated with 3 μM MYCMI-7 for 72 hrs. Viability was measured by trypan blue exclusion assay. F) Cell growth measured with Cyt62 assay of primary normal human epidermal melanocytes (NHEM) treated for 72 hours with MYCMI-7, G) Viability measured by trypan blue exclusion assay of NHEM after treatment for 72 hours with MYCMI-7.

[1] = system: primary normal human epidermal melanocytes (NHEM); assay: cell growth and trypan blue viability, NHEM; type: cell-based; conditions: 72 hours
Description: as §1

Recombinant human Top2a = Recombinant human Top2a (Homo sapiens, UniProt P11388); assay: Top2 decatenation assay; type: biochemical; conditions: in vitro decatenation of kDNA
Sequence of Recombinant human Top2a (P11388 whole entry): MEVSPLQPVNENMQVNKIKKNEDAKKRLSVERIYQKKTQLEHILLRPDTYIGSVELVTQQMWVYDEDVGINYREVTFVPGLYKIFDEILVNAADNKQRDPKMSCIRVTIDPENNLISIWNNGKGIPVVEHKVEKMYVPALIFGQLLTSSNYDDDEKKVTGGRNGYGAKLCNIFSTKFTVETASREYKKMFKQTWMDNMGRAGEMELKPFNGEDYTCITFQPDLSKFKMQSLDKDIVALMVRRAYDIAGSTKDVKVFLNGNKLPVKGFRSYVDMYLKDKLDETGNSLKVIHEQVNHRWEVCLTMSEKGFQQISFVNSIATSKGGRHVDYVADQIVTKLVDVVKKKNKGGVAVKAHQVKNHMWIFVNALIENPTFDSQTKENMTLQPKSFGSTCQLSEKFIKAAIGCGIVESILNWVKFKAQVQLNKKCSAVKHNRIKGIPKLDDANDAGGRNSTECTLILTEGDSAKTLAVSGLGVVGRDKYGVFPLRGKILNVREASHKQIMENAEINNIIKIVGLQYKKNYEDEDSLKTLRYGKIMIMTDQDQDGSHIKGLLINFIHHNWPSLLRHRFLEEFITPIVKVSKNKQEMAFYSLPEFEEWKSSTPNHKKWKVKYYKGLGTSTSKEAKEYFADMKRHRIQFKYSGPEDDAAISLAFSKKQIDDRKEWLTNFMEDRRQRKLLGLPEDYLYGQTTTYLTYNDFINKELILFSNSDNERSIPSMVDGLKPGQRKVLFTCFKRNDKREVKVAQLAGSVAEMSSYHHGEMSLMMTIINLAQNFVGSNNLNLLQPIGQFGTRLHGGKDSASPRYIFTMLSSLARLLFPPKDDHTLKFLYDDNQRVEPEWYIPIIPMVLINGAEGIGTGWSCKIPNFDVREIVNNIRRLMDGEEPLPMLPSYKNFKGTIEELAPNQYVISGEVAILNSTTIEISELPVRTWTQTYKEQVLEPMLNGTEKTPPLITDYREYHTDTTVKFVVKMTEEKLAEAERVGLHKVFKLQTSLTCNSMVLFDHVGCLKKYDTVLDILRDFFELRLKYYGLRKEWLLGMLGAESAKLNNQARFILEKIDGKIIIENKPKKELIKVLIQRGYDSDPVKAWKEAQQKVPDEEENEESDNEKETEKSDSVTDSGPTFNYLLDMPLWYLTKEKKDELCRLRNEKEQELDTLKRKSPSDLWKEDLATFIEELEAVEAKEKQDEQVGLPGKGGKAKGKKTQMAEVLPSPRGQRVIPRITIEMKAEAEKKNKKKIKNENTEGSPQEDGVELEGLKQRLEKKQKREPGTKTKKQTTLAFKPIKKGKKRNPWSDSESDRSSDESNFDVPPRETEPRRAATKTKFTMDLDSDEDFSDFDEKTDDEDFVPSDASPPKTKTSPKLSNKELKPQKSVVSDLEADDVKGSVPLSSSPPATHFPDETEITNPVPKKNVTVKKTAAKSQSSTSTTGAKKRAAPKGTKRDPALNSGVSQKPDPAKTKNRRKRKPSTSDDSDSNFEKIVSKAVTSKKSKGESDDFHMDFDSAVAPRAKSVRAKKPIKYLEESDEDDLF
Description: Top2 decatenation assay: Recombinant human Top2a (15 nM) was incubated with 80 ng catenated kinetoplast DNA (Topogen, TG2013) in Top2 reaction buffer (50 mM Tris pH8, 150 mM NaCl, 10 mM MgCl2, 0.5 mM DTT, 30 μg/ml BSA) with 1-100 μM of either doxorubicin, MYCMI-7, ellipticine or camptothecin for 10 minutes at 37° C. Drug dilutions were made in a DMSO/H2O solution so that a final concentration of 1% DMSO was consistent across all samples. The reaction was stopped with the addition of SDS to a final concentration of 1% and the Top2a was digested by Proteinase K at 55° C. for 10 minutes. DNA was purified by phenol:chloroform extraction before running on a 1% agarose gel either containing or post-stained with 0.5 μg/ml ethidium bromide. The decatenated products were quantified, normalised to the Top2α+DMSO control and plotted using GraphPad Prism.
First, we utilized an in vitro TOP2A decatenation assay. TOP2 enzymes decatenate kinetoplast DNA (kDNA) converting a network of interlocking DNA rings into individual rings that can be separated by agarose gel electrophoresis.

HCT116-TIR-AID cells = assay: auxin-induced TOP2A depletion in HCT116 cells; type: cell-based
MDA-MB-231 = MDA-MB-231 cells in cell culture; type: cell-based; conditions: Homo sapiens
Description: We next studied the effects of MYCMI-7 in a xenograft model of the human basal-like breast cancer cell line MDA-MB-231. The cells were highly sensitive to MYCMI-7 treatment in cell culture (data not shown), with a GI50 around 1 μM.

[2] = system: HO15.19 (MYC-/-) Rat1 fibroblasts; assay: WST-1 growth/viability assay, MYC null Rat1 fibroblasts
Description: A) Immortalized Rat1 fibroblasts with different MYC status; TGR1 (wt MYC), HO15.19 (MYC−/−) and HOMyc3 (HO15.19 with reconstituted MYC) were treated with indicated concentrations of MYCMI-7 for 48 hours. Cell proliferation/viability/metabolic activity was measured using the WST-1 assay. […] “Responsive” and “less responsive”; cell lines with positive and negative log 10 GI50 values, respectively. […] For the WST-1 assays the average of three different experiments performed in triplicates is shown.
Cell growth and viability assays: Cell growth and viability was estimated in triplicates with WST-1 (Roche) or Resazurin sodium salt (Sigma-Aldrich) assays in medium at 37° C. and 5% CO2 for 2 hours after which absorbance or fluorescence, respectively, was measured with an Omega Fluostar (BMG Labtech) in a 96 well plate format.

Sequence of MYC:MAX interaction (P01106 16-454): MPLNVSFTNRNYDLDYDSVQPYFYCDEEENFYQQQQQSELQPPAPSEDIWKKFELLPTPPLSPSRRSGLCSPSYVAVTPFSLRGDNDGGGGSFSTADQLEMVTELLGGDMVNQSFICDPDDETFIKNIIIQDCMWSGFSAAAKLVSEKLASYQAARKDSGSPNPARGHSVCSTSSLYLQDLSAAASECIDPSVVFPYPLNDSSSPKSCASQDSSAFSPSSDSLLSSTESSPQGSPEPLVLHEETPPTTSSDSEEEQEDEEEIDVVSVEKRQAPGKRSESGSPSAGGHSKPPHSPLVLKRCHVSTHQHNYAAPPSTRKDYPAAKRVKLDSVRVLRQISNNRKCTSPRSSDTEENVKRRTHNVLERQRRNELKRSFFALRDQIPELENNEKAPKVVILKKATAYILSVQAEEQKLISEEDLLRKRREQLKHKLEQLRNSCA
Description for Caco2 cell assay: First, we performed a pharmacokinetic study of the behavior of the molecule in mice.

SMILES: CCN(CC)CC[n+]1ccc2c(C)c3[nH]c4ccccc4c3c(C)c2c1 [MYCMI-7, 2-(5,11-Dimethyl-6H-25-pyrido[4,3-b]carbazol-2-yl)-N,N-diethylethanamine bromide]
- MYC:MAX interaction by co-IP (MYC:MAX interaction; 1 hour after treatment): decreased
- MYC:MAX interaction by co-IP (MYC:MAX interaction; 4 hours): reduced drastically
- GI50 (A375 melanoma cells): nanomolar range
- apoptosis (caspase activation) (A375 melanoma cells): induced apoptosis in a dose-dependent manner
- cell death (trypan blue) [1]: did not induce cell death
- metabolic activity [1]: reduced metabolic activity
- concentration at which TOP2A inhibition starts (Recombinant human Top2a): higher than 10 μM
- concentration of complete TOP2A inhibition (Recombinant human Top2a): 100 µM
- effect of TOP2A depletion on sensitivity to MYCMI-7 (resazurin assay) (HCT116-TIR-AID cells; auxin-induced depletion): does not affect
- effect of TOP2A depletion on MYCMI-7-induced inhibition of MYC:MAX interactions (isPLA) (HCT116-TIR-AID cells; pre-treatment with auxin): no effect
- GI50 (MDA-MB-231): ~1000 nM
- efflux (Caco2 cell assay): strong efflux
- concentration above which viability of HO15.19 cells started to go down (off target effects) [2]: higher than 10 μM
- proliferation/viability of MYC null cells ([2]; concentrations of 10 μM, WST-1): unaffected
